The source of these data is patent publication US20250134902A1, “DRUG REPURPOSING FOR DELAYED TREATMENT OF ISCHEMIC STROKE” (UNIVESRITY OF NORTH TEXAS HEALTH SCIENCE CENTER, priority 2022, published 2025).

The nature of series [1]: Pharmacokinetics of per oral oxeladin in plasma and brain. Format: in vivo, rat. The following applies: for time after dosing at which detected in brain / time after dosing at which detected in plasma: rat, 135 mg/kg. As to the method: Evaluating the pharmacokinetics of Sigma receptor agonists. […] Whole blood was harvested into EDTA coated tubes at 30, 60, 120, 240, 720, and 1440 minutes from rats following euthanasia by CO2 inhalation. Plasma was processed from whole blood by centrifugation for 10 min at 10,000 rpm and frozen at −80° C. until assayed. The brains were collected, weighed, snap frozen in liquid nitrogen, and stored at −80° C. until processed.
For standards, 98 μl blank plasma was added to an Eppendorf tube spiked with 2 μl of […] (IS). For QCs, add 98.8 μl blank plasma was added to an Eppendorf tube spiked with 1.2 μl of IS. 100 μl plasma was mixed with 200 μl of acetonitrile containing 0.15% formic acid and 37.5 ng/ml IS (IS final conc.=25 ng/ml), and 100 microliters brain homogenized solution was mixed with 200 microliters of acetonitrile containing 0.15% formic acid and 60 ng/ml IS (IS final conc.=40 ng/ml). The samples were vortexed 15 sec, incubated at room temp for 10 min and spun 2×13,200 rpm in a standard microcentrifuge. The supernatant was then analyzed by LC/MS/MS (QTRAP® 3200) according to the following parameters:
Ion Source/Gas Parameters: CUR=25, CAD=medium, IS=5000, TEM=700, GS1=70, GS2=70.
Buffer A: Water+0.1% formic acid; Buffer B: ACN+0.1% formic acid; flow rate 1.5 ml/min; column Agilent Eclipse XDB-C18 column, 5 micron packing 50×4.6 mm size; 0-1.5 min 3% B, 1.5-2.0 min gradient to 100% B, 2.0-3.5 min 100% B, 3.5-3.6 min gradient to 3% B, 3.6-4.5 3% B. IS: n-benzylbenzamide (Sigma-Aldrich, lot #02914LH, in ACN, transition 212.1 to 91.1); Compound transition 336.127/100.1.

Series [2] addresses T1, human Sigma-1 receptor (S1R) (Homo sapiens, UniProt Q99720).
T1 construct: expressed in transfected cells
In words: Radioligand competition binding at Sigma-1 receptor ([3H]-(+)-pentazocine, MCF-7-hS1R). As to the method:
Measuring receptor density with radioligand binding.
Measuring the ligand affinities at SIR and S2R receptors by radioligand binding. […] Binding conditions were the same as described previously for the S1R (Schetz, et al., 2007): binding buffer (Tris 50 mM, pH=8.1 at 37° C.), ice-cold wash buffer (Tris 10 mM, pH=8.1 at 0-2° C.), and incubation time (3 hrs at 37° C.) with shaking. Non-specific binding for the S1R and S2R was determined in the presence of 5 μM BD1063 and […] haloperidol, respectively. Following incubation, receptors were collected via rapid filtration through GF/C filters (Brandel, Gaithersburg, MD) followed by washing three times with 3 mL of ice-cold wash buffer. Dried filters were transferred to vials filled with 3.5 ml of scintillation fluid, and the radioactivity was quantified on a liquid scintillation analyzer (TRICARB® 2800TR) from Perkin Elmer (Saint Louis, MO). Mean values from duplicate or triplicate determinations are reported along with their associated standard error of the mean (SEM). Ki values were calculated from IC50 values using the Cheng-Prusoff equation. The concentration of membrane protein was determined using a PIERCE® BCA Protein Assay kit (Life Technologies, Grand Island, NY) following the manufacturer's protocol.
Referring to FIG. 1, the selectivity of potential S1R ligands over S2R was empirically evaluated. Human MCF-7 cells were used as the source of the S2R because these cells express the endogenous S2R (Vilner, John, et al., 1995; Wu & Bowen, 2008) but lack detectable levels of the S1R, allowing unambiguous detection of S2R activity in untransfected cells (Schetz, et al., 2007). MCF-7 cells stably expressing the cloned human S1R were used as the source of S1R.

For series [3] the following is noted: source not stated; cited from earlier work.
Another series deals with BDNF. In words: BDNF western blot in ischemic penumbra after tMCAO. Format: in vivo, rat. The following applies: single dose 135 mg/kg 48 hours after tMCAO; P=0.02. As to the method: Rats were sacrificed under isoflurane anesthesia 2, 6, or 24 hours after dosing, and brains were removed to assess protein expression in the ischemic and contralateral cortex by immunoblotting. Brains were rapidly removed, chilled for 2 min in ice-cold saline, and sliced into 2 mm coronal slices with a brain matrix for rapid 2,3,5 triphenyltetrazolium chloride (TTC) staining. Sections were immersed in 1% TTC for 1 minute at room temperature to reveal the extent of the infarct. Cortical penumbra tissue was collected, snap frozen, and stored at −80° C. for subsequent western blotting. Protein was extracted from tissue using T-PER™ reagent with HALT protease inhibitor (Thermo-Pierce), and concentrations were determined with the PIERCE® BCA assay (Thermo-Pierce). Protein was separated on 4-20% SDS-PAGE gels (BioRad) and transferred to nitrocellulose. Blots were probed with primary antibodies for BDNF (Abcam ab226842; 1:1000) and goat anti-rabbit-HRP secondary (Thermo 32260; 1:10,000). Bands were visualized by ECL with PIERCE® SUPERSIGNAL® West Dura Femto (Thermo-Pierce) reagent using a UVP EpiChemi3. Density was assessed with Image J and normalized to β-actin (Thermo MA1-91399; 1:1000).

The mark [4] stands for this setting: 135 mg/kg p.o., listed as oxeladin.

T1 sequence (Q99720 whole entry): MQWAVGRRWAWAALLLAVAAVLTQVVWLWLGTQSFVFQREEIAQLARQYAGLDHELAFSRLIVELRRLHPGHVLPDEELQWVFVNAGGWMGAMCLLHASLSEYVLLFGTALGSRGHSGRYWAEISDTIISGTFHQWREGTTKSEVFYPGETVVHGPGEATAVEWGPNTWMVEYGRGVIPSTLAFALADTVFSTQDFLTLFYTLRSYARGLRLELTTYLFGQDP

As to `CCN(CC)CCOCCOC(=O)C(CC)(CC)c1ccccc1` [Oxeladin], in series [1] (rat brain, 135 mg/kg oral gavage (figure legend)), the “half-life, brain” value is recorded as “greater than 4 hours”. Further, in series [1] (rat brain, 135 mg/kg p.o.), the “AUClast, brain” value is 423726 ng·min/g; the “Terminal T1/2 (terminal elimination half-life), brain” value worked out at 5.32 h; the “Tmax (time to obtain maximum concentration), brain” value turned out to be 0.5 h. Moreover, the “half-life, plasma” value in series [1] (rat plasma, 135 mg/kg oral gavage (figure legend)) is reported as “greater than 4 hours”. Besides, in series [1] (rat plasma, 135 mg/kg p.o.), the “AUClast, plasma” value was determined as 122293 ng·min/mL; the “Terminal T1/2 (terminal elimination half-life), plasma” value was determined as 4.15 h; the “Tmax (time to obtain maximum concentration), plasma” value came to 0.5 h. Further, in series [1] (135 mg/kg p.o.), the “time after dosing at which detected in brain” value is no more than 30 min and the “time after dosing at which detected in plasma” value is no more than 30 min. Moreover, in series [1] (setting [4]), the “time after dosing at which detected in brain” value came out at 30 min and the “time after dosing at which detected in plasma” value was found to be 30 min. Moreover, the “selective for S1R over S2R” value in series [2] is listed as 9 fold. Also, the Ki in series [2] (displacement of 0.5 nM [3H]-(+)-pentazocine, MCF-7 cells expressing human S1R, average of 2-3 experiments ± SEM, read-out: S1R affinity (Ki)) was determined as 25 ± 4.3 nM. Also, the “S2R/S1R ratio (Ki S2R/Ki S1R)” value in series [2] (selectivity for S1R over S2R) is on record as 6. Besides, the lipophilicity (LogP) in series [3] is recorded as 4.43. The “ratio of mature 17 kDa BDNF to 42 kDa pro-BDNF in the ischemic penumbra” value with BDNF is on record as “significantly increased”.
